For one data set, the system named is adult male C57BL/6 mice. The experiment in a line: Conditioned Place Preference (Abuse) Test. The data set is classed as in vivo, mouse. From the text:
A conditioned place preference (CPP) model was used to assess the reward properties of compounds of formulae (Ie), or a pharmaceutically acceptable salt of any of the foregoing, in adult male C57BL/6 mice. The CPP model apparatus consisted of a Plexiglas© test unit having three (A, B, C) compartments (9 cm×9 cm×16 cm) configured to allow access to all chambers. Compartments A and C had textually distinct flooring and wall marking. Mice were placed in the middle compartment with free access to the other compartments. On day 1 and 2, the “naive chamber preference” was assessed by placing the animal in the middle chamber twice a day (AM and PM) for 30 min on two consecutive days, with the chamber showing the greatest residence time being called the “preferred chamber”. On “drug pairing days” (days 5, 6, 7 and 8) mice were injected IP with vehicle (50 mM citric acid) in the AM in the preferred chamber and the drug/vehicle in the afternoon in the non-preferred chamber for four consecutive days. On the morning of day 9 (the day after the last drug pairing), the “drug chamber preference” was assessed by placing the mouse (absent any injection) in the middle chamber, with free access to all chambers for 30 minutes. This was repeated five days later (day fourteen), with no intervening drug treatment.
The time spent on days 9 and 14 (e.g. […] respectively after the last drug treatment) in the drug associated chamber was the test datum and is represented in FIG. 1. […] In contrast, there was no increase in the non-preferred chamber residence time when the least-preferred chamber was paired with saline, APAP or test compounds 2 or 28 on either days 9 or 14, or days 0 or 5.

The test system of a further data set is male ICR mice. The experiment in a line: Formalin Paw Test, mouse, intraperitoneal. Particulars: 60 mg/kg; for Early Phase, seconds of paw licking: early/acute phase (0-10 minutes); for Late Phase, seconds of paw licking: late/tonic phase (10-35 minutes). Format: in vivo. The procedure:
(§1) One test compound or the vehicle was administered to each rat or mouse in each test group (8 rats or mice per group). Non-fasted male Sprague-Dawley rats weighing 200-225 g or non-fasted male ICR mice weighing 23±3 g were used. […] Responses were measured every 5 minutes after the formalin injection for 35 minutes. The results in Table 2 are for oral administration in rat and the results in Table 3 are for intraperitoneal administration in mouse. In Tables 2 and 3, 'A' designates <70 seconds of paw licking, 'B' designates >70 and <165 seconds of paw licking, and 'C' designates >165 seconds of paw licking.

The test system of data set [1] is male Sprague-Dawley rats. Kind of data set: Formalin Paw Test, rat, oral. The data set is classed as in vivo. The conditions noted are these: 30 mg/kg. How it is done: as §1
The next data set addresses COX-1 (Homo sapiens, UniProt P23219). Kind of data set: NSAIDS and Opioid Receptor Test: COX-1. Format: biochemical. Particulars: 200 μM. How it is done:
(§2) Compounds were screened as DMSO solutions at 10 μM, 100 μM, or 200 μM and values represent percent inhibition of control-specific binding. […] As NSAID and opioid mechanisms of action are precluded, a person of ordinary skill in the art understands that undesirable side effects associated with inhibition of COX receptors in NSAIDs and activation of opiate receptors in opioids can be avoided by compounds described herein. Furthermore, opioids are known to lose their analgesic potency after to continued administration. (See Benyamin, et al. “Opioid Complications and Side Effects” Pain Physician 11 (2008): S105-S120). As the data indicates compounds described herein have a different mechanism action compared to opioids, a person of ordinary skill in the art would appreciate that compounds described herein would not be expected to lose their analgesic potency like opioids after continued admininistration.

In another data set the target is T1, COX-2 (Homo sapiens, UniProt P35354).
T1 sequence (P35354 18-604): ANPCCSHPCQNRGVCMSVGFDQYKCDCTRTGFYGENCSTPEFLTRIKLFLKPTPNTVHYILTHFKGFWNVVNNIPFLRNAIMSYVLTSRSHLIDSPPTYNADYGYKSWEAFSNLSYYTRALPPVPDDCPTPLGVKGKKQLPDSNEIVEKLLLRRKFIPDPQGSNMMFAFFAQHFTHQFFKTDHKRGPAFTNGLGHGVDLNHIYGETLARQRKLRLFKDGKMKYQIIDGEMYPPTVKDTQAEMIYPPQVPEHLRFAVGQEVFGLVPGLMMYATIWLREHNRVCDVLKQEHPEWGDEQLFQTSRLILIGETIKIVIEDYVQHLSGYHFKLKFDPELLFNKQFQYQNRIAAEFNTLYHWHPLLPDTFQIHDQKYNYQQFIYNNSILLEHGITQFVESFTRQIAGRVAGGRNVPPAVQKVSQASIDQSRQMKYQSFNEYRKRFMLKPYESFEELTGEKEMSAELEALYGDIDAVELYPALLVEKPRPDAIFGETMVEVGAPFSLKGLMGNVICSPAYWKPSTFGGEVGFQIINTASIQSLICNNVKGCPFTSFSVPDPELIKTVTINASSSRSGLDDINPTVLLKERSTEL
The experiment in a line: NSAIDS and Opioid Receptor Test: COX-2. The conditions noted are these: 200 μM. The data set is classed as biochemical. The procedure:
as §2

A further data set concerns the target Opiate δ2 (Homo sapiens, UniProt P41143). Kind of data set: NSAIDS and Opioid Receptor Test: Opiate δ2. Format: binding. The procedure:
as §2

For the next data set, the target named is Opiate κ (Homo sapiens, UniProt P41145). Kind of data set: NSAIDS and Opioid Receptor Test: Opiate κ. The data set is classed as binding. How it is done: as §2
For another data set, the target named is Opiate μ (Homo sapiens, UniProt P35372). The experiment in a line: NSAIDS and Opioid Receptor Test: Opiate μ. The data set is classed as binding. The procedure: as §2
A short description of data set [2]: Bioavailability Test (rat pharmacokinetics). The data set is classed as in vivo. How it is done: Oral bioavailability of compounds of Formulae (Ie), (Ih), (Ik), and (Ir), or a pharmaceutically acceptable salt of any of the foregoing, were evaluated in fasted male Sprague-Dawley (SD) rats weighing 200-225g. Compounds were dosed at 3 mg/kg (IV) and 30 mg/kg (PO). Unless otherwise noted, compounds were dissolved in 0.9% saline for IV dosing and 100% sterile water for PO dosing. Pharmacokinetic parameters were determined using Phoenix WinNonlin (v7.0). […]

The subject of data set [3] is male Sprague-Dawley rats. The experiment in a line: Post-Incisional (Brennan) Pain Test. Format: in vivo. The conditions noted are these: rat; for cumulative pain score, 4 h: 4 h post-dosing; for cumulative pain score, 24 h: 24 h post-dosing. The procedure:
Incisional pain was induced in non-fasted male Sprague-Dawley rats weighing 180-300 g by making a 1-cm plantar incision in the left hind paw and is designed to mimic pain and sensitivity similar to what is reported by patients after surgery. Dosing occurred at the time of incision and spontaneous pain was measured 4 and 24 hours post-dosing using a cumulative pain score. The unrestrained animals were placed on a metal mesh platform and allowed to acclimate for about 15 min/ Each animal was closely observed during a 1-min period repeated every 5 min for 1 h (12 times total). Depending on the position in which the foot was found during the scoring period, a score of 0, 1, or 2 was given. Full weight bearing of the foot (score=0) was present if the skin on the plantar surface of the paw wound was blanched or distorted by the mesh. If the foot was completely off the mesh, or one or more instances of licking or flinching was observed, a score of 2 was recorded and the licking or flinching was noted but not counted. If the plantar surface of the paw touched the mesh without blanching or distorting, a score of 1 was given. The sum of the 12 scores obtained during the 1 h session was calculated (maximum score=24) for each animal. Observations were made during hours 4 and 24. Test articles were administered orally at concentrations of 10, 30 or 100 mg/kg and ketoprofen was administered subcutaneously at a concentration of 10 mg/kg. The control group received the vehicle (sterile water). In Table 6, ‘A’ designates a cumulative pain score of ≤11, ‘B’ designates >11 and ≤16, and ‘C’ designates >16.
The results provided in Table 6 are for oral administration in rats.

Where [4] appears, read: male, Sprague-Dawley, in vivo, IV 3 mg/kg, 0.9% saline.
Setting [5] is: male, Sprague-Dawley, in vivo, PO 30 mg/kg, sterile water.

The source of these data is patent US11242327B2, “Analgesic compounds” (RECURIUM IP HOLDINGS, LLC, priority 2017, dated 2022).

The inhibition is how much of the control response was suppressed. The low end stands for little suppression, the high end for strong suppression. One may read the AUC(0-inf) as the area under the concentration-time curve extrapolated to infinity. Low values mean less exposure, high ones more exposure. By clearance is commonly meant a measure of how efficiently the substance is removed, as volume per time. The term half-life denotes the time in which the quantity being followed falls by half. Lower therefore signals fast loss. In general, Cmax refers to the peak of the concentration-time curve. In general, Tmax refers to the time at which the peak concentration occurs.

Counter-ions that a name gives are not always drawn.

Sequence of Opiate μ (P35372 whole entry): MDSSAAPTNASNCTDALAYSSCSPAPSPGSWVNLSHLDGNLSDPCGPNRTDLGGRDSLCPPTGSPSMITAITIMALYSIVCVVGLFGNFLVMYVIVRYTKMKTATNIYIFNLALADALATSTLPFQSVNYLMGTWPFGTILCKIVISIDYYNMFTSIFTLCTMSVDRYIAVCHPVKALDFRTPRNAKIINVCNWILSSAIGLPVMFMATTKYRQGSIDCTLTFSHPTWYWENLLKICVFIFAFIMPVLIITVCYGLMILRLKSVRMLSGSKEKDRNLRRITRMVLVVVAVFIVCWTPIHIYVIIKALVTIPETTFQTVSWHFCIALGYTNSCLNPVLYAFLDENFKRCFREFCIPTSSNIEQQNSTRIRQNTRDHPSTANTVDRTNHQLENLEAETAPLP
Sequence of Opiate δ2 (P41143 whole entry): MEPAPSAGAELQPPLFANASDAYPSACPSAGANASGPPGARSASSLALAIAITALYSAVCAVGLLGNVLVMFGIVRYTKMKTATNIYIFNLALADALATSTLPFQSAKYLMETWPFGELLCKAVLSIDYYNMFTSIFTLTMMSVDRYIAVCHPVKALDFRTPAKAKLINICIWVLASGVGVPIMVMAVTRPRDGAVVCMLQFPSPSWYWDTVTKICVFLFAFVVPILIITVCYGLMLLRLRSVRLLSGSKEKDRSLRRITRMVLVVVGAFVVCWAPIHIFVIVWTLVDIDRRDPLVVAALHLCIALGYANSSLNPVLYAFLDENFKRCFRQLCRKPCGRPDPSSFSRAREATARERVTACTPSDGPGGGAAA
Sequence of Opiate κ (P41145 whole entry): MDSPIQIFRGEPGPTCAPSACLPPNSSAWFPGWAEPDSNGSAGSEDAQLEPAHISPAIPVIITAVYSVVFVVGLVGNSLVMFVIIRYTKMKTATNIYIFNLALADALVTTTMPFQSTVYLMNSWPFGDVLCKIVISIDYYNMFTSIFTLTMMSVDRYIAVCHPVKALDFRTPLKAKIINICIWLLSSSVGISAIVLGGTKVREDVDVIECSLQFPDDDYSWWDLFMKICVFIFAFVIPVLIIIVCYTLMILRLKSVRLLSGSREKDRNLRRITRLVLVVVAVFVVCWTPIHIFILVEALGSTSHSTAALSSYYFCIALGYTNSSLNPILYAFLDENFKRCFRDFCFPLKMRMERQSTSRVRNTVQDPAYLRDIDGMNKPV
Sequence of COX-1 (P23219 24-599): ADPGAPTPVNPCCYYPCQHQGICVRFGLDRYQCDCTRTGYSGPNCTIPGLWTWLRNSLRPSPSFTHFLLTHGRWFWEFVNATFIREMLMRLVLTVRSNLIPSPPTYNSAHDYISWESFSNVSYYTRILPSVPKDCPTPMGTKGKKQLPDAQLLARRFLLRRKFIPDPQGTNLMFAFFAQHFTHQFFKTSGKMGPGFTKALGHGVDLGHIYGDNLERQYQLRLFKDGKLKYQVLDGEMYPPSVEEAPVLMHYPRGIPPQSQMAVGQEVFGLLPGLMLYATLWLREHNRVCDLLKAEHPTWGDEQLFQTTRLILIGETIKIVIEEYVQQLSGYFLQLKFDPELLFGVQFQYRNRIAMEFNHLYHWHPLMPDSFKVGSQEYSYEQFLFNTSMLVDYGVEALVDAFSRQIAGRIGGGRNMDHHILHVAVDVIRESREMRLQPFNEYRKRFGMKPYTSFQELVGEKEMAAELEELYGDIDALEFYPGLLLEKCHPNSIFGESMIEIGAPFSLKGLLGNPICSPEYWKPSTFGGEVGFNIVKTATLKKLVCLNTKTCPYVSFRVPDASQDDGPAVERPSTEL

With `CN1CC[C@]23c4c5ccc(O)c4O[C@H]2[C@@H](O)C=C[C@H]3[C@H]1C5` [morphine, reference compound], the “least preferred (drug associated) chamber residence time” value is “significant increase” with adult male C57BL/6 mice (mice, IP, drug pairing 4 consecutive days, assessed on day 9) and “significant increase” with adult male C57BL/6 mice (mice, IP, drug pairing 4 consecutive days, assessed on day 14).

Consider `CC(C)[C@H](N)C(=O)NC12CC(C(F)(F)F)(C1)C2` [Compound 23, (S)-2-Amino-3-methyl-N-(3-(trifluoromethyl)bicyclo[1.1.1]pentan-1-yl)butanamide hydrochloride], for which, in the data set with male ICR mice, the “Early Phase, seconds of paw licking” value is listed as “A (<70 seconds of paw licking)” and the “Late Phase, seconds of paw licking” value is on record as “C (>165 seconds of paw licking)”.

For `Cl.NC12CC(c3cccc(C(F)(F)F)n3)(C1)C2` [Compound 13, 3-(6-(Trifluoromethyl)pyridin-2-yl)bicyclo[1.1.1]pentan-1-amine hydrochloride], in the data set with male Sprague-Dawley rats [1] (early/acute phase (0-10 minutes)), the “Early Phase, seconds of paw licking” value is listed as “A (<70 seconds of paw licking)”. Also, in the data set with male Sprague-Dawley rats [1] (late/tonic phase (10-35 minutes)), the “Late Phase, seconds of paw licking” value is “A (<70 seconds of paw licking)”. Also, the inhibition at 200 µM against COX-1 was 6%; at COX-2 it was 8%; against Opiate δ2 (200 μM) it was 6%; at Opiate κ (200 μM), 33%; on Opiate μ (200 μM), 56%. The same compound displayed a F in data set [2] (PO 30 mg/kg vs IV 3 mg/kg) of 16%. The figures for the AUC(0-inf) in [2] (setting [4]) and in data set [2] (setting [5]) were 3 µM·h and 35 µM·h, respectively. Further, the clearance in [2] (setting [4]) amounted to 73 mL/min/kg. For the same compound, the results for the half-life in data set [2] (setting [4]) and in data set [2] (setting [5]) were 570 min and 408 min, respectively. The Vd in data set [2] (male, Sprague-Dawley, in vivo, IV 3 mg/kg, 0.9% saline, read-out: Vdss) was determined as 20.2 L/kg. In data set [2] (setting [5]), the Cmax came out at 11 µM. Moreover, the Tmax in [2] (setting [5]) was found to be 36 min.

For the compound `NC12CC(C(F)(F)F)(C1)C2` [Compound 28, 3-(trifluoromethyl)bicyclo[1.1.1]pentan-1-amine hydrochloride], the “cumulative pain score, 4 h” value with male Sprague-Dawley rats [3] (oral, 10 mg/kg) was “C (>16)”; with male Sprague-Dawley rats [3] (oral, 30 mg/kg), “B (>11 and ≤16)”; in the data set with male Sprague-Dawley rats [3] (oral, 100 mg/kg) it was “B (>11 and ≤16)”. The “cumulative pain score, 24 h” value is “C (>16)” with male Sprague-Dawley rats [3] (oral, 10 mg/kg); “B (>11 and ≤16)” in the data set with male Sprague-Dawley rats [3] (oral, 30 mg/kg); “A (a cumulative pain score of ≤11)” with male Sprague-Dawley rats [3] (oral, 100 mg/kg). The inhibition at 100 µM was 2% against Opiate δ2 (100 μM), 1% against Opiate κ (100 μM) and 3% against Opiate μ (100 μM). In addition, in the data set on adult male C57BL/6 mice (mouse, in vivo, ip), the “least preferred (drug associated) chamber residence time” value is “no increase”.

As for `CCOC(=O)NC12CC(C(F)(F)F)(C1)C2` [Compound 24, Ethyl (3-(trifluoromethyl)bicyclo[1.1.1]pentan-1-yl)carbamate], in the data set with male ICR mice, the “Early Phase, seconds of paw licking” value was “A (<70 seconds of paw licking)”; the “Late Phase, seconds of paw licking” value was “B (>70 and <165 seconds of paw licking)”.

Take `CC(C(=O)O)c1cccc(C(=O)c2ccccc2)c1` (stereo not shown) [Ketoprofen, reference compound]: in the data set on male Sprague-Dawley rats [3] (subcutaneously, 10 mg/kg), the “cumulative pain score, 4 h” value was “B (>11 and ≤16)”; the “cumulative pain score, 24 h” value is given as “A (a cumulative pain score of ≤11)”.
